In PMC10864275, “Binding kinetics drive G protein subtype selectivity at the β1-adrenergic receptor” (Nature Communications, 2024):

Target: T1, β1AR-E signalling via Gs (Meleagris gallopavo, UniProt P07700, C116L/C358A/DEL244-271/F327A/F338A/M179L/M281A/M44L/M48L/R68S)
T1 construct: expressed in transfected cells; host or cells: HEK293T
Format: cell-based, turkey
Conditions: G protein not given
Excerpt: We next assessed G protein coupling using the TRUPATH BRET2 biosensor assay[46] (Supplementary Fig. 2c) expressed in HEK293T cells, allowing examination of signalling via the canonical coupling partner Gs. […] Therefore, the TRUPATH and ligand binding assays confirmed that reversal of the thermostabilising mutation increased receptor activity without impacting ligand affinity. Also, although less efficacious, the thermostabilised β1AR-W construct still retained functional G protein coupling.
For Gq, a constitutively active mutated version (R183Q) was used to increase the sensitivity for detection of Gq activation. After 24 h, cells were harvested and seeded onto PLL-coated white 96-well plates (Greiner Bio-One) at a density of 50,000 cells per well. […] The plate was then incubated for 10 min at room temperature in the dark.

T1 sequence (P07700 other isoform, or with tags, fused parts or gaps with the stated changes): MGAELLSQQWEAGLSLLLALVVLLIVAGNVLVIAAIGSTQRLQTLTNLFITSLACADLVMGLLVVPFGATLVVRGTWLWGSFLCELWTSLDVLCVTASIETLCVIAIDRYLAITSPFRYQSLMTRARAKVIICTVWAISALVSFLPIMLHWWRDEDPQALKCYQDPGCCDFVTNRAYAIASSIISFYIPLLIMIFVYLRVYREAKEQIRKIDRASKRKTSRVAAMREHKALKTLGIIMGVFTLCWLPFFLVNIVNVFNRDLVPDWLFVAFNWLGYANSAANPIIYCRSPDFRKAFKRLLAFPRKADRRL

Structure (SMILES)	potency in TRUPATH assays relative to isoprenaline
CC(C)(C)NCC(O)c1ccc(O)c(CO)c1 (centres unmarked) [Sal., salbutamol]	decreased potency
O=C(NCCNCC(O)COc1ccc(O)cc1)N1CCOCC1 (centres unmarked) [Xam., xamoterol]	decreased potency
